What all share (type): functional
Assay [1] relates to Escherichia coli. Briefly: Antimicrobial activity against fluoroquinolone-sensitive Escherichia coli clinical isolate by Etest.
In assay [2] the test system is Escherichia coli. Briefly: Antimicrobial activity against fluoroquinolone-resistant Escherichia coli clinical isolate by agar dilution method. For orientation: In agar dilution, organisms are placed on agar that contains the substance at set levels.
In assay [3] the test system is Escherichia coli. Briefly: Antimicrobial activity against fluoroquinolone-resistant Escherichia coli clinical isolate by Etest.
Assay [4] relates to Escherichia coli. The assay can be described thus: Antimicrobial activity against Escherichia coli ATCC 25922 by agar dilution method.

Molecules are shown by their SMILES. ≈ marks a conversion by molar mass, not a printed value. Where “and” joins values, the source holds several entries; their conditions need not be identical. Equal values may be shown once.

For the compound `C[C@H]1COc2c(N3CCN(C)CC3)c(F)cc3c(=O)c(C(=O)O)cn1c23.C[C@H]1COc2c(N3CCN(C)CC3)c(F)cc3c(=O)c(C(=O)O)cn1c23.O` [LEVOFLOXACIN], the MIC (in general, the lowest concentration that inhibits growth of the organism) was found to be 0.023 µg/mL in the assay on Escherichia coli [1]; 0.042 µg/mL in the assay with Escherichia coli [1] (Escherichia coli, read-out: MIC); 39 µg/mL in the assay on Escherichia coli [2]; 8 µg/mL in the assay on Escherichia coli [3].

For `CCn1cc(C(=O)O)c(=O)c2cc(F)c(N3CCNCC3)cc21` [NORFLOXACIN], the minimum inhibitory concentration (MIC) in the assay with Escherichia coli [4] was 0.03 µg/mL (≈ 0.0939 µM); against Escherichia coli [1] it was 0.06 µg/mL and 0.02 µg/mL; with Escherichia coli [2] it was 232 µg/mL (≈ 727 µM); with Escherichia coli [3], 16 µg/mL (≈ 50.1 µM).

As for `COc1c(N2CCNC(C)C2)c(F)cc2c(=O)c(C(=O)O)cn(C3CC3)c12` (stereo unspecified) [GATIFLOXACIN], the minimum inhibitory concentration (MIC) with Escherichia coli [4] amounted to 0.004 µg/mL (≈ 0.0107 µM); against Escherichia coli [2] it was 23 µg/mL (≈ 61.3 µM); in the assay on Escherichia coli [3], 8 µg/mL (≈ 21.3 µM).

The values above are taken from ChEMBL document CHEMBL1629565, “Relationships among ciprofloxacin, gatifloxacin, levofloxacin, and norfloxacin MICs for fluoroquinolone-resistant Escherichia coli clinical isolates” (2009).
